Assay results from article PMC9578445, “Association of respiratory failure with inhibition of NaV1.6 in the phrenic nerve” (Channels, 2022).
Read-outs that look alike come from different tables or passages of the source.

Columns and labels:
[1] = Plasma exposure in phrenic nerve activity assay; type: in vivo; conditions: rat; for concentration at 15 min / concentration at 30 min / concentration at 10 min: CD, plasma, intravenous; for concentration at 15 min / concentration at 30 min: 10 mg/kg
Description: (§1) For in vivo CVR and phrenic nerve activity studies, all raw signals were amplified via general purposed biological amplifier (filter settings DC – 3-5 KhZ) then digitized, calibrated and collected at a minimum of 500 Hz (1000 Hz for ECG and 2000 Hz for cardiac electrograms, and 10 KHz for phrenic nerve activity) using Notocord-HEM data acquisition and analysis software. The raw signal was filtered following acquisition with a bandpass filter set to 200–800 Hz). Vehicle (100% dimethylformamdide, DMF) or compound formulated in the vehicle was administered as a 30-minute IV infusion at 0.0167 μL/g body weight/min. Doses were selected to achieve unbound plasma concentrations in range of measured Nav1.6 IC50 values when infused at 0.0167uL/g body weight/min based on measured rat clearance, plasma protein binding and Nav1.6 IC50. Exposure in rats was determined in separate pharmacokinetics experiments where compounds were administered via IV dosing.

phrenic nerve = assay: Rat phrenic nerve firing assay; conditions: rat in vivo, measured at 30 minutes
Protocol: To determine direct effects on phrenic nerve activity, male CD rats were anesthetized and instrumented as described above for the CV/R assay. In addition, an incision was made in the ventral neck area and the right phrenic nerve identified anatomically and isolated via blunt dissection. The phrenic nerve was placed over a high impedance bipolar hook electrode and the nerve covered with mineral oil to prevent desiccation. Animals were mechanically ventilated via a tracheotomy (~10 mL/kg, 40–70 breaths/min, titrated individually to stabilize phrenic activity) following neuromuscular block (pancuronium 0.5–1 mg/kg, iv) and bilateral vagotomy to better define test agent effects on phrenic nerve activity. Anesthesia was verified repeatedly following pancuronium administration by testing the BP/HR response to noxious stimuli. Spontaneous electrical activity was continuously recorded and then later rectified and averaged to calculate frequency, width, peak height of bursts, and magnitude. Magnitude of the activity was calculated by taking the absolute value of the raw signal and then averaging that signal over 50 ms increments. The resulting average signal was then converted to magnitude by subtracting the […] for each phrenic burst complex. The resulting magnitude values were then averaged over 1 minute increments to result in the graphs shown. Figure S1 in the Supplemental Information illustrates this analytical procedure.
as §1

[2] = system: rat diaphragm with the phrenic nerve attached; assay: Rat hemisected diaphragm (HMD) assay, ex vivo
Description: Wistar derived male or female rats weighing 450 ± 50 g were euthanized by CO2 overexposure. The diaphragm with the phrenic nerve attached was removed and placed into a tissue recording chamber containing Krebs solution pH 7.4; (composition in g/L: NaCl 6.89, KCl 0.35, CaCl2 0.277, KH2PO4 0.163, MgSO4 · 7H2O 0.296, NaHCO3 2.1 and glucose 1.8). A piece of cotton was attached to the top of the phrenic nerve over the jaw electrodes. A second piece of cotton was attached to the tip of the tendinous tissue at the apex of the diaphragm preparation for attachment to an isometric transducer under 1 g tension. The rib of the diaphragm preparation was secured to the bottom of the jaw electrodes. […] The recording chamber was placed into a water bath kept at a temperature of 32°C by means of a suitable thermoregulator consisting of a thermostat and heating elements in addition to a water circulator.
The isometric transducer was connected to an amplifier and the tissue response was recorded on a two-pen recorder set at 1 volt. Field stimulation [S48 Stimulator (GRASS) set at 0.2 Hz (12 pulses per minute), 0.5 ms pulse duration at 70% of maximum voltage (about 3 to 5 volts)] delivered to two circle platinum electrodes (0.2 cm in diameter) was applied for transmural tissue stimulation. Each tissue preparation was washed three times in Krebs solution every 15 minutes for a 60 minute equilibration period and permitted to develop contractions. D-Tubocurarine (300 µM dissolved in 0.1 mL distilled water for a final 3 µM bath concentration) was added to establish an isometrically recorded control relaxation response ranging from one to two centimeters and corresponding to 60–70% of maximal relaxation. […] The tissue was then washed periodically until the contraction returns to the baseline value.
Sixty minutes later, the test compound was added (e.g. 30 mM in 0.01 mL vehicle of 100% DMSO, for final concentration of 30 µM test compound and 0.1% DMSO). A test compound recorded relaxation response of 50% or more (≥50%) within 5 minutes, relative to the 3 µM d-Tubocurarine control response, indicates neuromuscular blocking activity.

[3] = system: anesthetized male CD rats; assay: Rat Cardiovascular/Respiratory (CV/R) assay; type: in vivo; design: ∆ QRS Interval: unit not given here; conditions: rat, IV infusion
Protocol: Male CD Rats were anesthetized with ketamine:xylazine (85 mg/kg:5 mg/kg, im, to effect). The left femoral artery and vein were cannulated for the measurement of blood pressure and the administration of test agent, respectively. The right femoral vein was cannulated for maintenance anesthetic infusion (ketamine:xylazine ~35 mg/kg/hr:1.5 mg/kg/hr, iv, to effect). Needle electrodes were placed subcutaneously at the right axillary and left inguinal areas to record lead II ECGs. When ECG intervals were required to determine effect on cardiac conduction a pacing/recording electrode catheter was advanced through the right jugular vein to pace the heart. ECG intervals were then measured at a fixed cardiac rate of 400 beats/minute to remove any variability of intrinsic heart rate on these parameters.
To determine the test agent-dependent effect on respiratory rate, a tracheotomy was also performed using a short length of polyethylene tubing containing a thermistor (AD Instruments). The change in temperature detected by the thermistor was used to calculate respiratory rate.
as §1

[4] = Plasma exposure in rat CV/R assay; type: in vivo; conditions: rat, rat, IV infusion; for concentration at 15 min / concentration at 30 min: CD, plasma, iv
Description: as §1, with “Doses were selected to achieve unbound plasma concentrations in range of measured Nav1.6 IC50 values when infused at 0.0167uL/g body weight/min based on measured rat clearance, plasma protein binding and Nav1.6 IC50.” left out

[5] = male, 3 mg/kg, 3 mg/kg, read-out: Total [plasma]
[6] = male, 3 mg/kg, 3 mg/kg, read-out: Unbound [plasma]
[7] = 30 mg/kg, 11 min, just prior to death

O=S(=O)(Nc1ncns1)c1cc(F)c(NCC23CCCN2CCC3)cc1F [SSCI-4]
concentration at 15 min ([1]; read-out: Total [plasma]): 55.3 ± 5.5 µM | concentration at 15 min ([1]; read-out: Unbound [plasma]): 23.3 ± 2.61 µM | concentration at 30 min ([1]; read-out: Total [plasma]): 61.6 µM | concentration at 30 min ([1]; read-out: Unbound [plasma]): 29.3 µM | concentration at 10 min ([1]; 30 mg/kg, read-out: Total [plasma]): 91.4 µM | concentration at 10 min ([1]; 30 mg/kg, read-out: Unbound [plasma]): 43.5 µM | Total [plasma] ([1]; 30 mg/kg, 25–33 min): 108.234 ± 9.606 µM | Unbound [plasma] ([1]; 30 mg/kg, 25–33 min): 51.46 ± 4.56 µM | percent decrease in the magnitude of the phrenic nerve signal (phrenic nerve): 50% | IC50 ([2]; Rattus norvegicus, relative to 3 μM d-Tubocurarine relaxation = 100%): 8.9 µM | ∆ Heart Rate ([3]; 3 mg/kg, 15 min): −3.5 bpm | ∆ Mean Arterial Pressure ([3]; 3 mg/kg, 15 min): 6.4 mmHg | ∆ QRS Interval ([3]; 3 mg/kg, 15 min): 2.4 | ∆ respiratory rate ([3]; 3 mg/kg, 15 min): −24.7% | ∆ Heart Rate ([3]; 3 mg/kg, 30 min): −5.6 bpm | ∆ Mean Arterial Pressure ([3]; 3 mg/kg, 30 min): 2.4 mmHg | ∆ QRS Interval ([3]; 3 mg/kg, 30 min): 4.5 | ∆ respiratory rate ([3]; 3 mg/kg, 30 min): −26.1% | ∆ Heart Rate ([3]; 10 mg/kg, 15 min): 6.6 bpm | ∆ Mean Arterial Pressure ([3]; 10 mg/kg, 15 min): −5.5 mmHg | ∆ QRS Interval ([3]; 10 mg/kg, 15 min): 7.6 | ∆ respiratory rate ([3]; 10 mg/kg, 15 min): −17.8% | ∆ respiratory rate ([3]; 10 mg/kg, 25 min): −100% | ∆ respiratory rate ([3]; 30 mg/kg, 11 min): −100% | concentration at 15 min ([4]; 10 mg/kg, 10 mg/kg, read-out: Total [plasma]): 31.5 µM | concentration at 15 min ([4]; 10 mg/kg, 10 mg/kg, read-out: Unbound [plasma]): 15 µM | concentration at 15 min [4, 5]: 11.4 µM | concentration at 15 min [4, 6]: 5.4 µM | concentration at 30 min [4, 5]: 17.6 µM | concentration at 30 min [4, 6]: 8.4 µM | Total [plasma] ([4]; 10 mg/kg, 25 min, just prior to death): 39.3a μM | Total [plasma] [4, 7]: 89.7a μM | Unbound [plasma] [4, 7]: 42.7a μM

COc1cc2c3cc1Oc1cc(ccc1O)C[C@@H]1c4c(cc(OC)c(O)c4Oc4ccc(cc4)C[C@@H]3N(C)CC2)CC[N+]1(C)C [d-Tubocurarine, D-Tubocurarine, reference compound]
relaxation, % of the maximal relaxation of the muscle ([2]; 3 μM, termed the 100% inhibition level): 60–70%
